Data as given in patent publication US20260374767A1, “FUSED HETEROCYCLIC COMPOUNDS AND USES THEREOF” (Chengdu Zenitar Biomedical Technology Co., Ltd., priority 2022, published 2026).

Tests used:
PARP1 = PARP1 (Homo sapiens, UniProt P09874); assay: Determination of PARP1 Enzyme; assay type: biochemical; conditions: read-out: PARP-1 inhibition ratio
Method: 1.1 Determination of PARP1 Enzyme
1.1.1 Preparation of buffer solution: PBST: 1× PBS, 0.05% Tween-20; blocking solution: 1× PBS, 0.05% Tween-20, 5% BSA; reaction buffer: 50 mM Tris-HCl (pH 7.5), 0.005% Tween-20, 0.01% BSA.
1.1.2 Coating: A 50 ng/mL Histone coating solution was prepared by using 1× PBS, 25 μL of the coating solution was transferred to a 384-well reaction plate, and the reaction plate was coated overnight at 4 °C.
1.1.3 Washing: After the coating was completed, the coating solution was discarded, and the reaction plate was washed with the PBST solution by means of transferring 50 μL of the PBST to the 384-well reaction plate, letting it stand for 5 min, discarding the washing solution, refilling the reaction plate, and repeating the washing process 3 times. Finally, the reaction plate was tapped dry and the next step of blocking was proceeded with.
1.1.4 Blocking: 50 μL of the blocking solution was transferred to the 384-well reaction plate and set for 1 h.
Washing: After the blocking was completed, the blocking solution was discarded, the reaction plate was washed 3 times with the PBST solution according to the method in Step 2, and the reaction plate was tapped dry.
1.1.5 A 1,000× compound was prepared, 1 μL of the compound was transferred to a 96-well plate containing 199 μL of the reaction buffer, mixed well, and then 5 µL of the mixed compound was transferred to the 384-well reaction plate.
1.1.6 A 25/10× PARP1-DNA solution was prepared by using the reaction buffer, 10 μL of the PARP1-DNA solution was transferred to the 384-well reaction plate. For a negative control well, 10 μL of the DNA solution was transferred and the final concentration of PARP1 was 0.02 nM and that of DNA was 0.8 nM.
1.1.9 Washing: After the reaction was completed, the reaction liquid was discarded. The reaction plate was washed 3 times with the PBST solution according to the method in Step 2, and the reaction plate was tapped dry.
1.1.11 Washing: The anti-Poly/Mono-ADP Ribose Rabbit was discarded, the reaction plate was washed 3 times with the PBST solution according to the method in Step 2, and the reaction plate was tapped dry.
1.1.12 A 2,000× anti-rabbit IgG, HRP-linked Antibody was diluted with the blocking solution, 20 μL of the diluted anti-rabbit IgG, HRP-linked Antibody was added, and incubated at room temperature for 1 h.
1.1.13 Washing: The anti-rabbit IgG, HRP-linked Antibody was discarded, the reaction plate was washed 3 times with the PBST solution according to the method in Step 2, and the reaction plate was tapped dry.
1.1.14 Color developing: Femto-ECL Substrate A and Femto-ECL Substrate B were mixed in a 1:1 ratio, and 25 μL of the mixture was transferred to the 384-well reaction plate.
1.1.15 Reading: A relative light unit (RLU) was read with Envision.

MDA-MB-436 cells = assay: Anti-proliferative activity assay, BRCA-mutated MDA-MB-436 cells (CCK8); assay type: cell-based; conditions: Homo sapiens, MDA-MB-436, BRCA-mutated, 72 h + 96 h
Description: (§1) 2. Anti-Proliferative Activity Assay of Cell:

DLD-1 cells = assay: Anti-proliferative activity assay, BRCA wild-type DLD-1 cells (CCK8); assay type: cell-based; conditions: Homo sapiens, 72 h + 96 h
Description: as §1

breast cancer MDA-MB-436 [1] = assay: In-vivo pharmacodynamic study on subcutaneous xenograft tumor model of breast cancer MDA-MB-436; set-up: species or system human tumor cells in NOD/SCID mice; conditions: for inhibitory effects on tumor growth compared to blank control group: all dose groups
Method: Strain: NOD/SCID; Grade: SPF; Source: Beijing Vitron River Bio-technology Co., Ltd.
The cells were washed 3 times with pre-cooled PBS, centrifuged at 300 g for 10 min, collected, re-suspended in PBS, and counted with a blood cell counting chamber, and the cell concentration was adjusted. After cell collection, the cell suspension was pre-cooled on ice. 100 μL of the cell suspension was administered via subcutaneous injection into the dorsal flank of the mice, and the grouped treatment was started when the tumor volume reached 200-300 mm^3.
Animal assay: all viable experimental animals scheduled for assay; Assay time: All animals were weighed before the modeling for test grouping. After modeling, the mice were weighed once every 2 days, and the weight change of the mice was recorded in real time. Effective criteria: tumor volume (TV), relative tumor volume (RTV) and relative tumor growth rate of subcutaneously implanted tumor model. […] The calculation formula of tumor volume (TV) was: TV (mm^3)=a×b2×0.5, where a and b were the long diameter and short diameter, respectively.
The evaluation index for anti-tumor activity was the relative tumor growth rate T/C (%), and the calculation formula was as follows: […]
Where, TRTV is relative tumor volume of the treatment group; CRTV is relative tumor volume of the negative control group. […] The tumor inhibition rate (%) was calculated by the formula below: […]
All raw data within the facility were collected manually according to the experimental scheme and the relevant guidelines of the research institution, or gathered by using a data acquisition system. Manually collected data can be transcribed into software such as Excel for analysis and reporting. The data from each group were quantitative, and the experimental data for each group of animals in the tables were expressed as mean±standard deviation (Mean±SD). In the figures, the experimental data ware described as mean±standard error of the mean (Mean±SEM). Statistical analysis, including t-tests and survival analysis, was performed by using the software such as EXCEL and GraphPad Prism.
After 24 days of administration, the tumor-bearing mice were anesthetized and euthanized. The tumor tissues were dissected, weighed, and photographed, and the tumor inhibition rate was calculated.

[2] = Body weight in MDA-MB-436 xenograft study; assay type: in vivo, NOD/SCID mice; conditions: for Body weight X ± SD, End: 24 days
Method: Animal assay: all viable experimental animals scheduled for assay; Assay time: All animals were weighed before the modeling for test grouping. After modeling, the mice were weighed once every 2 days, and the weight change of the mice was recorded in real time. Effective criteria: tumor volume (TV), relative tumor volume (RTV) and relative tumor growth rate of subcutaneously implanted tumor model. The long diameter and short diameter of the tumor was measured with vernier calipers every 2 days, and the anti-tumor effects of the tested drug was dynamically observed. The calculation formula of tumor volume (TV) was: TV (mm^3)=a×b2×0.5, where a and b were the long diameter and short diameter, respectively.
Each group consisted of 6 mice, all of which are administered orally once daily. […] After 24 days of administration, the tumor-bearing mice were anesthetized and euthanized. The tumor tissues were dissected, weighed, and photographed, and the tumor inhibition rate was calculated.

[3] = Pharmacokinetic evaluation in Balb/c mice; assay type: in vivo; conditions: mouse, plasma, 1 mg/kg, PO
breast cancer MDA-MB-436 [4] = assay: Challenge experiment on subcutaneous xenograft tumor model of breast cancer MDA-MB-436 (large-volume tumors); conditions: 1 mg/kg orally once per day
[5] = 0.1 mg/kg orally once daily, 24 days

Sequence of PARP1 (P09874 whole entry): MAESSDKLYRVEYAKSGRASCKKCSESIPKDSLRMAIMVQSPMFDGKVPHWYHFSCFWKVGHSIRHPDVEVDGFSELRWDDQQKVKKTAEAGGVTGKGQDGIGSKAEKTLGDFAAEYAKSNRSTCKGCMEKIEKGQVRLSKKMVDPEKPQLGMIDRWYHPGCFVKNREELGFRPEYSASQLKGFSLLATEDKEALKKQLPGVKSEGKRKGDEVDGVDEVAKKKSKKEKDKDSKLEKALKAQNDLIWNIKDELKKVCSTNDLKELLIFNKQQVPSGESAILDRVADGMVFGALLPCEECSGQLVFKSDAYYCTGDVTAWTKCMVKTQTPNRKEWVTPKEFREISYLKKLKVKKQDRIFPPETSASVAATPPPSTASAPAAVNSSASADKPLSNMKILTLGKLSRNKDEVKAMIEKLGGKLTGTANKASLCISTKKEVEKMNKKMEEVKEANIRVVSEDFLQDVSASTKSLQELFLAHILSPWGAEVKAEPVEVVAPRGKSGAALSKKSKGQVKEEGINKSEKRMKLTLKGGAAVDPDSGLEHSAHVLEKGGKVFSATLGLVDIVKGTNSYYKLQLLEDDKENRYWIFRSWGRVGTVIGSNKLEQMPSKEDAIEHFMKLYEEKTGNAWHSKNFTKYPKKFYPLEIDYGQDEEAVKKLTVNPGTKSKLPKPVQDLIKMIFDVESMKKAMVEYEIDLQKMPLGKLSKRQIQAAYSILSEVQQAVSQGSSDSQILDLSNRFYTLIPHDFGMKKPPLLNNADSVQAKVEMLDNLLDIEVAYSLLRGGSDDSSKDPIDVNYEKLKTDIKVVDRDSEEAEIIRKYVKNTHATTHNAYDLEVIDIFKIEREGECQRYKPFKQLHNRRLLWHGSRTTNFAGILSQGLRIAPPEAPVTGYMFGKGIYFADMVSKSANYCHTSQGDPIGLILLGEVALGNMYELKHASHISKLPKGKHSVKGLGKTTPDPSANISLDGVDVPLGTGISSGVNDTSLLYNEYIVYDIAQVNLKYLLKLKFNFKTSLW

Row | Compound | inhibition at 0.01 µM (PARP1) [%] | inhibition at 0.1 µM (PARP1) [%] | IC50 (MDA-MB-436 cells) [nM] | IC50 (DLD-1 cells) [µM] | inhibitory effects on tumor growth compared to blank control group (breast cancer MDA-MB-436 [1]; 24 days) | also measured
1 | [2H]C([2H])([2H])C([2H])([2H])c1cc2ncc(CN3CC=C(c4ccc(C(=O)NC5CC5)nc4)CC3)cc2[nH]c1=O [Compound 12, N-cyclopropyl-1′-((7-(ethyl-d5)-6-oxo-5,6-dihydro-1,5-naphthyridin-3-yl)methyl)-1′,2′,3′,6′-tet rahydro-[3,4′-bipyridine]-6-carboxamide] | 99.8 | 99.9 | – | – | – | –
2 | [2H]C([2H])([2H])C([2H])([2H])c1nc2ccc(CN3CC=C(c4ccc(C(=O)NC)nc4F)CC3)c(F)c2[nH]c1=O [Compound 14, 1′-((2-(ethyl-d5)-5-fluoro-3-oxo-3,4-dihydroquinoxalin-6-yl)methyl)-2-fluoro-N-methyl-1′,2′,3′,6′-tetrahydro-[3,4′-bipyridine]-6-carboxamide] | 98.9 | 99.1 | – | – | – | –
3 | [2H]C([2H])([2H])NC(=O)c1ccc(C2=CCN(Cc3cnc4cc(CC)c(=O)[nH]c4c3)CC2)cn1 [Compound 2] | – | – | 1.1 | > 10 | – | –
4 | [2H]C(c1cnc2cc(CC)c(=O)[nH]c2c1)N1CC=C(c2ccc(C(=O)NC)nc2)CC1 (stereo not shown) [Compound 3] | – | – | 1 | > 10 | – | –
5 | [2H]C([2H])([2H])C([2H])([2H])c1nc2ccc(CN3CC=C(c4ccc(C(=O)NC)nc4)CC3)c(F)c2[nH]c1=O [Compound 13, 1′-((2-(ethyl-d5)-5-fluoro-3-oxo-3,4-dihydroquinoxalin-6-yl)methyl)-N-methyl-1′,2′,3′,6′-tetra hydro-[3,4′-bipyridine]-6-carboxamide] | 96.1 | 98.5 | – | – | – | –
6 | O=C(c1cc(Cc2n[nH]c(=O)c3ccccc23)ccc1F)N1CCN(C(=O)C2CC2)CC1 [Olaparib, reference compound] | – | – | – | – | significant inhibitory effects on tumor growth | Body weight X ± SD, End ([2]; 100 mg/kg orally once daily): 21.7 ± 1.4 g; Body weight X ± SD, Start ([2]; 100 mg/kg orally once daily): 21.9 ± 1.1 g
7 | CCc1cc2ncc(CN3CC=C(c4ccc(C(=O)NC)nc4)CC3)cc2[nH]c1=O [Compound 1] | – | – | 0.9 | > 10 | significant inhibitory effects on tumor growth | CL/F [3]: 0.167 mL/min/kg; tumor regression in large-volume tumors (breast cancer MDA-MB-436 [4]): complete regression of tumors; Tumor inhibition rate (breast cancer MDA-MB-436 [1]; [5]): 82.18%; Tumor weight X ± SD (breast cancer MDA-MB-436 [1]; [5]): 0.39 ± 0.28 g; Tumor volume X ± SD, End (breast cancer MDA-MB-436 [1]; 0.1 mg/kg orally once daily, end, 24 days): 304.9 ± 141.7 mm^3; Tumor volume X ± SD, Start (breast cancer MDA-MB-436 [1]; 0.1 mg/kg orally once daily, start): 271.4 ± 76.6 mm^3; Body weight X ± SD, End ([2]; 0.1 mg/kg orally once daily): 21.6 ± 1.1 g; Body weight X ± SD, Start ([2]; 0.1 mg/kg orally once daily): 21.6 ± 0.3 g
8 | [2H]C([2H])([2H])Cc1cc2ncc(CN3CC=C(c4ccc(C(=O)NC)nc4)CC3)cc2[nH]c1=O [Compound 16, 1′-((7-(ethyl-2,2,2-d3)-6-oxo-5,6-dihydro-1,5-naphthyridin-3-yl)methyl)-N-methyl-1′,2′,3′,6′-t etrahydro-[3,4′-bipyridine]-6-carboxamide] | – | – | 0.7 | > 10 | – | –
9 | CCc1cc2ncc(CN3CCN(c4ccc(C(=O)NC)nc4)CC3)cc2[nH]c1=O [AZD5305, reference compound] | – | – | – | – | significant inhibitory effects on tumor growth | Body weight X ± SD, End ([2]; 0.1 mg/kg orally once daily): 21.8 ± 1.0 g; Body weight X ± SD, Start ([2]; 0.1 mg/kg orally once daily): 21.9 ± 0.7 g
10 | [2H]C([2H])([2H])NC(=O)c1ccc(C2=CCN(Cc3cnc4cc(C([2H])([2H])C([2H])([2H])[2H])c(=O)[nH]c4c3)CC2)cn1 [Compound 11, 1′-((7-(ethyl-d5)-6-oxo-5,6-dihydro-1,5-naphthyridin-3-yl)methyl)-N-(methyl-d3)-1′,2′,3′,6′-tet rahydro-[3,4′-bipyridine]-6-carboxamide] | – | – | 0.8 | > 10 | – | –
